Test results as given in PMC12608337 (Molecules, 2025).

Tests used:
[1] = tested on: dengue virus type 2 (DENV-2); conditions: cited from earlier work
[2] = tested on: Zika virus (ZIKV); conditions: cited from earlier work
[3] = tested on: ZIKV; conditions: mouse, in vivo; cited from earlier work
[4] = in vitro; conditions: African green monkey (Cercopithecus aethiops)
[5] = tested on: wt-YFV; format: cell-based, yellow fever virus
[6] = tested on: herpes simplex virus (type 1); conditions: cited from earlier work
[7] = tested on: Spodoptera littoralis; conditions: cited from earlier work

| SMILES | CC50 [4] [mM] | antiviral activity against wt-YFV [5] | further results |
| --- | --- | --- | --- |
| O[C@H]1[C@H]2c3cc4c(cc3CN3CCC(=C[C@@H]1O)[C@H]23)OCO4 [lycorine] | – | – | antiviral activity against DENV-2 [1]: exhibits antiviral activity; antiviral activity against ZIKV [2]: exhibits antiviral activity; mortality [3]: reduced mortality; viral load in the blood [3]: lower viral load in the blood |
| NC(=O)C[C@H](N)C(=O)O [asparagine] | ~1 | did not reveal significant antiviral activity | – |
| C[n+]1cccc(C(=O)[O-])c1 [Trigonelline, trigonelline] | ~1 | did not reveal significant antiviral activity | inhibition of survival of herpes simplex virus (type 1) [6]: significantly inhibited the survival |
| N[C@@H](CCC(=O)O)C(=O)O [glutamic acid] | – | did not reveal significant antiviral activity | – |
| N=C(N)NCCC[C@H](N)C(=O)O [arginine] | ~1 | did not reveal significant antiviral activity | – |
| COc1c2c(cc3c1OCO3)[C@@]13CCN(C2)[C@@H]1CC[C@H](O)[C@@H]3O [Bulbisine, bulbisine] | 0.123 | did not reveal significant antiviral activity | – |
| N[C@@H](Cc1c[nH]c2ccccc12)C(=O)O [tryptophan] | 0.578 | did not reveal significant antiviral activity | – |
| COc1cc2c(cc1OC)[C@@H]1[C@H](O)[C@@H](OC)[C@H](OC(C)=O)C3=CCN(C2)[C@H]31 [3-O-acetyl-narcissidine, 3-O-acetylnarcissidine] | – | – | antifeedant effect [7]: exhibited an antifeedant effect |
